Test results published in ChEMBL document CHEMBL1649420, “Identifying chelators for metalloprotein inhibitors using a fragment-based approach” (J Med Chem, 2011).

Columns and labels:
Details in all cases: at 1 mM
[1] = target: T1, Lethal factor (Bacillus anthracis) (UniProt P15917)
T1 sequence (whole entry): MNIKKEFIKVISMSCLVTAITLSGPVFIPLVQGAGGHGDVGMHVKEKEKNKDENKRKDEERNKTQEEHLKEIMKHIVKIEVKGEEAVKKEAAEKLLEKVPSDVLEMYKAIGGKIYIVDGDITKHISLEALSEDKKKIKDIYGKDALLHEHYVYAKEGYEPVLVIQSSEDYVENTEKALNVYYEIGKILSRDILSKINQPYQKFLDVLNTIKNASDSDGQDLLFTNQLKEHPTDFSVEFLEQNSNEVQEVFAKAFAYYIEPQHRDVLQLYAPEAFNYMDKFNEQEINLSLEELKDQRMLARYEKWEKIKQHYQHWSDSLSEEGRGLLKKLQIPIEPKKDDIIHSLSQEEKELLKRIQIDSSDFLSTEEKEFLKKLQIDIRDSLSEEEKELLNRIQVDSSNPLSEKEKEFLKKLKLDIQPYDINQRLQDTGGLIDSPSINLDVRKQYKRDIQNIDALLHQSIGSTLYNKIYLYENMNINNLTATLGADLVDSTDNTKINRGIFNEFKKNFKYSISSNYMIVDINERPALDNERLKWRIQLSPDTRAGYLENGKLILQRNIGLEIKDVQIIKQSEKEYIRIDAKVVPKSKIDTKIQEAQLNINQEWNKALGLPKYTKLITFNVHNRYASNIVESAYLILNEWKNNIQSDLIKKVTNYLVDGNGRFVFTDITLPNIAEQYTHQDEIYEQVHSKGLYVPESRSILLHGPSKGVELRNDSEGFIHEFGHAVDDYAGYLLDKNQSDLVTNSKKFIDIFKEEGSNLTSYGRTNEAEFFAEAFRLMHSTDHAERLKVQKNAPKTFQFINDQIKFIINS

[2] = target: T2, Interstitial collagenase (Homo sapiens) (UniProt P03956);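 note: recombinant human enzyme, with inhibition measured after 30 min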
T2 sequence (whole entry): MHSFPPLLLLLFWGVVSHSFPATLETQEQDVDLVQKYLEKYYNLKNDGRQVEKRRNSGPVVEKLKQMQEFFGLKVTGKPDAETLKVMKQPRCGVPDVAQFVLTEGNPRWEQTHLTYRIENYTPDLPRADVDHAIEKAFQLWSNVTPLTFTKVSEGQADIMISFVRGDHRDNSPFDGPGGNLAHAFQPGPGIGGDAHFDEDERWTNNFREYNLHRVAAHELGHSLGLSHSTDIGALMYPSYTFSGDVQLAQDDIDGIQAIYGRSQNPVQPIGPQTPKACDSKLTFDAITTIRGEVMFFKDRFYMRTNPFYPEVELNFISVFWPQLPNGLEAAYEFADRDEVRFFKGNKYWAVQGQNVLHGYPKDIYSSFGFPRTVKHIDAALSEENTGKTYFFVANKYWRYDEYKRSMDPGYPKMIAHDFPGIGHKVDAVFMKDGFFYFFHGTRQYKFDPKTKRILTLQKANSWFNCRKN

[3] = target: Matrix metalloproteinase-9 (Homo sapiens) (UniProt P14780);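 note: recombinant human MMP9, activity read after 30 min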
Matrix metalloproteinase-9 (Homo sapiens), sequence (P14780 whole entry): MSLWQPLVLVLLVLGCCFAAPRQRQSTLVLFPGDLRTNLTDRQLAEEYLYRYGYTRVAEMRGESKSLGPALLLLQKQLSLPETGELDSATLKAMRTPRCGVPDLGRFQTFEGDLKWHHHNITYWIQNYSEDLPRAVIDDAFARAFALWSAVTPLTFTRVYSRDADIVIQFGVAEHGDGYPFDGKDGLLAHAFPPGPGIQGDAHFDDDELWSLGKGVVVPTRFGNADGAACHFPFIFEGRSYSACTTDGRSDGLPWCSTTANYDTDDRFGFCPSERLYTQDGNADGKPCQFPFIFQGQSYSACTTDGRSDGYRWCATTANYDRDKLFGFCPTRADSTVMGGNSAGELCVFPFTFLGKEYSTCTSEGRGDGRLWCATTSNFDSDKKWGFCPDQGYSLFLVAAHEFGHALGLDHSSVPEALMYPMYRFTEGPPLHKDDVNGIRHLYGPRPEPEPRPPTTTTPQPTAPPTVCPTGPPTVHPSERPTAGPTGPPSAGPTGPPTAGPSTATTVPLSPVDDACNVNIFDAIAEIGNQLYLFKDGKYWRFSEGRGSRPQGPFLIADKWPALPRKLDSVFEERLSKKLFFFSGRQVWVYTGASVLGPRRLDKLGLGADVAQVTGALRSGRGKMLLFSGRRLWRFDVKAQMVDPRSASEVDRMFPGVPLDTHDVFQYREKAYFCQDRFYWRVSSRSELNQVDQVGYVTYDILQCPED

[4] = target: T3, Nitric oxide synthase, inducible (Mus musculus) (UniProt P29477);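 note: recombinant enzyme, activity read out colorimetrically after 40 min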
T3 sequence (whole entry): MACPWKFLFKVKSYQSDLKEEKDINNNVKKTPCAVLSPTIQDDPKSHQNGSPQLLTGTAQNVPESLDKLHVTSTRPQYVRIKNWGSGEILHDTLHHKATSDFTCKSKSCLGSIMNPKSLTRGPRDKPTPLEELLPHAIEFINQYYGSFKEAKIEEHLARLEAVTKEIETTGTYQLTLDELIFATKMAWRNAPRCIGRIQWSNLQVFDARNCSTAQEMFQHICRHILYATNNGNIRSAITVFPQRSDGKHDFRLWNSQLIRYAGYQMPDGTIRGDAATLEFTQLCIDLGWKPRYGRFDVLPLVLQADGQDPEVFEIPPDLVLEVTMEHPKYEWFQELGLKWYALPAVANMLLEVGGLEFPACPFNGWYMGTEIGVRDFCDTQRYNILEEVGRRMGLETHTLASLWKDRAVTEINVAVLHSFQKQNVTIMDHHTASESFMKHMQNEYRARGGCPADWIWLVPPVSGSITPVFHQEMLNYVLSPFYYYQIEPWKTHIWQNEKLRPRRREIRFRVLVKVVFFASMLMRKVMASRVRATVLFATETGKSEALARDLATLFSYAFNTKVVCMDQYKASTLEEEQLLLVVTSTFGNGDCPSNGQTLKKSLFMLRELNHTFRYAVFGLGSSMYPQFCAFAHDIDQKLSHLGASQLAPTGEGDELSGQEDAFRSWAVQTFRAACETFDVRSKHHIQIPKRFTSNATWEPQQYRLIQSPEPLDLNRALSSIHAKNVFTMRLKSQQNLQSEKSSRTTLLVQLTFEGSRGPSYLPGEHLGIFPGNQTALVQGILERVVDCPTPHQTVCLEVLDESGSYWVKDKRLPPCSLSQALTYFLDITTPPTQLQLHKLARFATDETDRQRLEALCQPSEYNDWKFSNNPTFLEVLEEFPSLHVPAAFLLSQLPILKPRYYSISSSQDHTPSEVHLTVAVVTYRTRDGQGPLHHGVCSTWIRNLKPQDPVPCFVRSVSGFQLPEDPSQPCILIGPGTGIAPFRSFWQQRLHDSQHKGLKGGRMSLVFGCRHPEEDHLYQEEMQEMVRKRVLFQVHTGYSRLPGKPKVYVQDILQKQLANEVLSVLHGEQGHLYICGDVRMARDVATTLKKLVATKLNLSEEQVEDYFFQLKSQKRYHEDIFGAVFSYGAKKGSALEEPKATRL

Row | SMILES | inhibition [1] | inhibition [2] | inhibition [3] | inhibition [4]
1 | O=C(O)c1ncccc1O | 43% | 55% | 19% | 46%
2 | O=C(O)c1ccc(F)cc1O | 17% | 14% | 5% | 1%
3 | O=C(O)c1cccc(O)c1O | 9% | 17% | 11% | 2%
4 | O=C(O)c1ccccc1O | 6% | -1% | 12% | 13%
5 | Oc1ncccn1 | 28% | 100% | 51% | 6%
6 | Cc1cc(O)nc(O)n1 | 8% | 13% | 1% | 8%
7 | O=C(O)c1ccccn1 | 49% | 3% | 0% | 6%
8 | O=C(O)c1nccc2ccccc12 | 31% | 32% | 26% | 13%
9 | O=C(O)c1cccc[n+]1[O-] | 40% | 10% | 8% | -1%
10 | O=C(O)c1cccc(C(=O)O)n1 | 83% | 7% | -7% | 20%
11 | O=C(O)c1cc(F)ccc1O | 16% | -7% | 21% | 1%
12 | Cn1cccc(O)c1=O | 1% | 17% | 8% | -5%
13 | Cc1cc(O)nc(C)n1 | 18% | 10% | 1% | 8%
14 | O=c1cccccc1O [TROPOLONE] | 55% | 100% | 91% | 9%
15 | Nc1[nH]cnc2ncnc1-2 | 16% | 17% | -3% | 6%
16 | O=c1occcc1O | 21% | 74% | 70% | 42%
17 | Cc1ccc(S(N)(=O)=O)cc1 | 6% | 11% | -7% | -5%
18 | Cc1cc(=O)c(O)co1 | 22% | 37% | 31% | -3%

Row | SMILES | inhibition [1] | inhibition [2] | inhibition [3] | inhibition [4]
19 | Nc1ccc(C(=O)O)c(O)c1 | 30% | -7% | 24% | 8%
20 | O=C(O)c1cccc(Br)n1 | 75% | 11% | 4% | 17%
21 | Cc1occ(O)c(=O)c1C(=O)O | 45% | 60% | 51% | 17%
22 | CCCCc1ccc(C(=O)O)nc1 | 29% | 58% | 18% | 10%
23 | O=c1ccocc1O | 29% | 48% | 45% | 22%
24 | O=C(O)c1ccc(C(=O)O)nc1 | 18% | 0% | -2% | -4%
25 | Cc1cccc(C(=O)O)c1O | 8% | 10% | 14% | 13%
26 | Cc1cc(=O)c(O)c(CCl)o1 | 21% | 53% | 41% | 6%
27 | O=c1cc(CCl)occ1O | 30% | 67% | 42% | 63%
28 | [O-][n+]1cccc2cccc(O)c21 | 59% | 70% | 67% | 28%
29 | c1ccc(CNCc2ccccn2)nc1 | 41% | 73% | 84% | -2%
30 | CC(=O)C(C)C(C)=O | -7% | 10% | -4% | 7%
31 | CCn1ccc(=O)c(O)c1C | 10% | 19% | 10% | -9%
32 | C1CNCCNCCN1 | 59% | 105% | 100% | 0%
33 | Cc1nc(O)nc(O)c1C | 28% | 11% | -4% | 46%
34 | Cc1ccc(O)c(C(=O)O)c1 | 56% | 28% | 2% | 21%
35 | CC(=O)C1CCCC1=O (centres undefined) | 6% | 38% | 25% | 29%
36 | Nc1cc(=O)nc(N)[nH]1 | 34% | 3% | 2% | 7%
